| Structure (SMILES) | melting point |
| --- | --- |
| C#C[C@@]1(O)[C@@H](COC(=O)c2ccc(Cl)cc2)OC(O)[C@@H]1O (stereo partly specified) | 116 to 118 °C |
| O=c1cc(O)cc(CBr)o1 | 77 to 78 °C |
| Cc1ccc(C(F)(F)C(F)(F)c2ccc(Br)cc2)cc1 | 104 to 106 °C |
| O=CC(=O)c1ccc(Oc2cccc(C(F)(F)F)c2)cc1 | 73 to 80 °C |
| CC(=O)Oc1cc2c(cc1C=O)C1CCC3(C)C(O)CCC3C1CC2 (stereo unspecified) | 73 to 75 °C |
| Brc1ccc(C(Br)Br)nc1 | 59 to 61 °C |
| Cc1cc(Nc2ccc(Cl)c(Cl)c2)nc(-n2nc(C)cc2C)n1 | 135 to 138 °C |
| CCOC1(C)OCC(O)O1 (stereo unspecified) | 86 to 87 °C |
| O=C(CNC(=O)OCc1ccccc1)NCC1CCCCC1 | 95 to 98 °C |
| CCOC(=O)c1ncc(Cl)cc1N | 140 to 142 °C |
| CC(O)c1cc2c(s1)C(C)(C)CCC2(C)C (stereo unspecified) | 53 to 55 °C |
| CC(C)(C)c1nnc2ccc(Cl)nn12 | 150 to 152 °C |
| CCCN(CCC)C(=O)c1cc(C(=O)N[C@@H](Cc2cc(F)cc(F)c2)[C@H](O)CNC2(c3cc(CN(C)C)ccn3)CC2)cc(-c2ncco2)c1 | 70 to 72 °C |
| COc1cc(C(C)=O)ccc1OCCCCl | 57.8 to 58.5 °C |
| CC(C)c1cc(S(C)(=O)=O)c(C(C)C)cc1C#N | 134 to 137 °C |
| Clc1ccc2nc(-c3ccsc3)c(I)n2n1 | 203 to 206 °C |
| NC(=O)c1c(C(F)(F)F)ccc(Cl)c1F | 123 to 125 °C |
| CCc1cc(=O)cc(CC)[nH]1 | 103 to 110 °C |
| CCOC(=O)C1=C(COCc2nnn(CCNc3cc(Cl)ncn3)n2)NC(C)=C(C(=O)OC)C1c1cccc(Cl)c1Cl (stereo unspecified) | 160 to 162 °C |
| CC(C)(O)C#Cc1ncn2c1[C@@H]1CCCN1C(=O)c1c(Br)cccc1-2 | 227 to 228 °C |

| Structure (SMILES) | melting point |
| --- | --- |
| Cc1cc(C2=NOC(c3cc(Cl)cc(Cl)c3)(C(F)(F)F)C2)ccc1C(=O)Nc1cncnc1 (stereo unspecified) | 207 to 211 °C |
| CC(=O)NC[C@H]1CN(c2ccc(-n3cccn3)c(F)c2)C(=O)O1 | 183 to 184 °C |
| CCSc1nsc(NC(=O)N(C)C)c1C#N | 198 °C |
| CCOC(=O)c1snc(-c2ccc(F)cc2)c1N | 137 to 139 °C |
| CS(=O)(=O)Nc1cc(-c2ncc(C(F)(F)F)cc2Cl)ccc1Cl | 133 to 134 °C |
| CCOC(=O)c1c2c(n(CC(N)=O)c1C)C(=O)C(=O)c1ccc(Br)cc1-2 | > 250 °C |
| O=C(NC1N=C(c2ccccc2F)c2ccccc2NC1=O)c1ccc[nH]1 (racemic) | 271 to 274 °C |
| CC(C)(CC(O)(Cn1cc(Br)c(=O)c2sccc21)C(F)(F)F)c1cccc2c1OCO2 (stereo unspecified) | 197 to 198 °C |
| CCCN(CCC)C1Cc2cc3c(cc2C1)C(=O)N(c1ccc(C#N)cc1)C3=O | 250 to 251 °C |
| C=CCC(O)(Cn1cncn1)c1ccc(Cl)cc1Cl (stereo unspecified) | 101 °C |
| Nc1cccc2c1sc1c(Nc3cccc(Br)c3)ncnc12 | 216 to 217 °C |
| N#Cc1cccc(C=Cc2ccc(Cl)cc2)n1 | 113 to 115 °C |
| CN1CCC(c2cc3cccc(O)c3o2)CC1 | 144 to 146 °C |
| C=CCN(C(=O)NC(C)(C)C)c1nc(NC(=O)NC(C)(C)C)c2cc([N+](=O)[O-])ccc2n1 | 105 to 106 °C |
| C#Cc1cccc(Nc2ncnc3[nH]cc(-c4cccs4)c23)c1 | 230 to 232 °C |
| CCc1c[nH]c2c3c(ccc12)OCC3 | 91 to 92.5 °C |
| CC(C)(C)NC(=O)[C@@H]1CC(OCCCCF)CN1C(=O)[C@@H](O)[C@H](Cc1ccccc1)NC(=O)[C@H](CC(N)=O)NC(=O)OCc1ccccc1 (stereo partly specified) | 68 to 71 °C |
| CC1(C)CCC(C)(C)c2cc3sc(-c4ccc(C(=O)O)cc4)cc3cc21 | 291 to 292 °C |
| O=C(O)c1ccc(COCc2csc3nc(C(=O)NCc4ccnc(OCCCc5nc[nH]n5)c4)[nH]c(=O)c23)cc1 | 206 to 209 °C |
| CN(C)C1(c2ccccc2)CCC2(CC1)NCCc1c2[nH]c2ccc(-c3ccncc3)cc12 (stereo unspecified) | 190 to 197 °C |

| Structure (SMILES) | melting point |
| --- | --- |
| CC1CCc2c(ccc(F)c2-n2ccnc2)N1 (stereo unspecified) | 162 to 164 °C |
| COC(=N)CCCCc1csc(NC(=N)N)n1 | 143 to 145 °C |
| CC(c1oc2ccccc2c(=O)c1-c1cccc(F)c1)n1nc(-c2ccc(Oc3ccccc3)cc2)c2c(N)ncnc21 (stereo unspecified) | 218 to 220 °C |
| CC(=O)OCC(C)C1=CCC2C3CC=C4CC(OC(C)=O)CCC4(C)C3CCC12C (stereo unspecified) | 116 to 117 °C |
| C=C(C)CN1CCCC(C(=O)O)=Cc2cc(-c3ccc(OCCOCCCC)cc3)ccc21 | 132 to 134 °C |
| CC(C)Nc1cccnc1N1CCN(C(=O)c2ccc(C(=O)N(CCO)CCO)cn2)CC1 | 130 to 132 °C |
| CC(=O)c1cccc2nc[nH]c12 | 220 to 223 °C |
| CCc1nc2c(N)cccc2o1 | 46 °C |
| CCC1(CC)C(=O)N(CC(O)Cc2cc(C)c(O)c(C(C)(C)C)c2)C(=O)N(CC(O)Cc2cc(C)c(O)c(C(C)(C)C)c2)C1=O (stereo unspecified) | 147 to 148 °C |
| CCOC(=O)C1=C(C)NC(C)=C2C(=O)Oc3cccnc3C12 (stereo unspecified) | 100 to 150 °C |
| Cc1[nH]c(/C=C2\C(=O)Nc3cc(NC(=O)c4cccn(-c5ccc(F)cc5)c4=O)ccc32)c(C)c1CC(=O)O | > 300 °C |
| O=C(CN1CCN(CCSc2nc3cccc(C(F)(F)F)c3o2)CC1)Nc1c(C(F)(F)F)cc(O)cc1C(F)(F)F | 176 to 177 °C |
| COc1cccc2c(CC(=O)O)coc12 | 143 to 145 °C |
| COc1ccc(CC#N)c(CC#N)c1 | 49 to 51 °C |
| O=C(O)Cn1cc(Br)cnc1=O | 183 to 185 °C |
| C=C(C)C(=O)OCCC#Cc1ccc(-c2ccc(OC(=O)C(=C)C)cc2)cc1 | 80 °C |
| Cc1cccc2c(=O)[nH]c(N3CCN(C)C(CO)C3)cc12 (stereo unspecified) | 184 to 186 °C |
| CCN(Cc1ccc(Cl)cc1Cl)C(=O)n1oc(C)c(Cl)c1=O | 80.5 to 81.5 °C |
| c1ccc(N2CCN(CCCc3[nH]nc4c3CCCC4)CC2)cc1 | 92 to 94 °C |
| CC(O)(C1CCC(Oc2ncnc3ccccc23)CC1)C(F)(F)F (stereo unspecified) | 159 to 160 °C |

Other lines, results leading:

| melting point | Structure (SMILES) |
| --- | --- |
| 303 to 306 °C | Cc1nn(-c2ccccn2)c2[nH]c3cccc(C(=O)O)c3c(=O)c12 |
| 184 to 188 °C | O=S1(=O)c2ccccc2N(c2ccccn2)c2ccccc21 |
| 178 to 180 °C | O=c1c2c(n(-c3ccccc3)c3ncccc13)OC(CI)C2 (stereo unspecified) |
| 184 to 185 °C | Cc1cc(C(C)(C)C)c(O)c(S(=O)(=O)Nc2ccc(I)cc2)c1 |
| 178 to 180 °C | CSCCCc1cc(F)c2ncc(C(=O)NCc3ccc(Cl)cc3)c(O)c2c1 |
| 169 to 170 °C | O=C(NC(Cc1c[nH]c2ccccc12)C(=O)Oc1c(F)c(F)c(F)c(F)c1F)OCc1ccccc1 (stereo unspecified) |
| 202 to 205 °C | O=C(O)C1=Cc2ccc(OCc3ccccc3)cc2CC1 |
| 124 to 125 °C | CCOC(=O)Cc1nc(-c2ccc(Cl)cc2)oc1-c1ccoc1 |
| 69 to 71 °C | CCOC(=O)c1cc(=O)c2c(OCC(O)CSC)cccc2o1 (stereo unspecified) |
| 44.6 to 46.2 °C | CCOC(OCC)c1cccc2c1Sc1ccccc1N2C |
| 232 to 233 °C | CC(=O)Nc1ccc(S(=O)(=O)NCC(O)(Cn2cncn2)c2ccc(Cl)cc2Cl)cc1 (stereo unspecified) |
| 103 to 106 °C | CCc1nc2c(C)cc(C)nc2n1Cc1ccc(C(c2ccccc2)C(C)(C)C(=O)O)cc1 (stereo unspecified) |
| 175 to 178 °C | Cc1csc2ncc(C(O)CCc3ccc(Br)cc3)n12 (stereo unspecified) |
| 120 to 122 °C | COC(=O)c1cc2ncnn2nc1NCCCN1CCC(OC(c2ccccc2)c2ccccc2)CC1 |
| 250 to 254 °C | COC(=O)c1cn(-c2ccc(F)cc2)c(-c2ccc(Cl)cc2)cc1=O |
| 143 to 144 °C | Cc1oc(-c2ccccc2)nc1COc1ccc(OCc2oc(-c3ccccc3)nc2CO)cc1 |
| 72.5 to 78.6 °C | O=c1c(Cc2cccnc2)cn2c3ccccc3c3cc(OCCCO)cc1c32 |
| 161 to 167 °C | Cc1noc([C@@H](Cc2ccccc2)NC(=O)[C@@H](Cc2ccc3ccccc3c2)NC(=O)C=CC(C)(C)NC(=O)OC(C)(C)C)n1 |
| 154 to 156 °C | COC(=O)C1=C(C)Nc2ccccc2SC1c1ccccc1 (stereo unspecified) |
| 134 °C | COc1ccc2c(c1)C(=O)C(=Cc1ccccc1)O2 |
| 188 °C | O=CNNc1ccc(NC(=S)Nc2ccccc2)cc1 |

| melting point | Structure (SMILES) |
| --- | --- |
| 260 to 262 °C | O=c1c2c(CCc3ccc([N+](=O)[O-])cc3)n[nH]c2c2cccnc2n1-c1ccccc1 |
| 82 to 83 °C | O=S(=O)(c1ccccc1)c1ncc(C(F)(F)F)cc1F |
| 237 to 239 °C | COCc1c(-c2ccc(O)cc2)oc2ccccc2c1=O |
| 214 to 216 °C | CC(C)(C)OC(=O)Nc1ccc(-c2ccc(-c3ccccc3)cc2)cc1NC(=O)CC(=O)c1cccc(C#N)c1 |
| 98 °C | CC(=S)c1cncn1C(c1ccccc1)c1ccccc1 |
| 140 to 141 °C | Cc1cc(OC(=O)c2ccccc2)cc(C)c1O |
| 118 to 121 °C | CCc1nn2c(-c3ccc(Cl)cc3Cl)cccc2c1N(CC)CC |
| 217 to 220 °C | CC(C)n1nc(-c2nc(N)c(C(N)=O)nc2-c2ccccc2)ccc1=O |
| 94 to 96 °C | CC(C)(C)OC(=O)N1CCC(Nc2ncc3c(n2)-c2ccccc2C(c2ccc(Cl)c(Cl)c2)C3)CC1 (stereo unspecified) |
| 189 to 191 °C | CS(=O)(=O)c1ccc(-c2cnn(-c3ccc(F)c(F)c3)c(=O)c2-c2cccs2)cc1 |
| 163 to 166 °C | CCn1c(=N)c(F)cn(S(=O)(=O)c2ccccc2)c1=O |
| 82 to 84 °C | CCOC(=O)CC(=O)c1ccc(N)cc1 |
| 192 to 194 °C | O=C(Nc1ccc2cc(CN3CCCC3)cnc2c1)c1ccc(-c2ccccc2)cc1 |
| 98 to 115 °C | COC(=O)CCc1cc2nc(C)ccc2n1S(=O)(=O)c1ccccc1 |
| 61 to 70 °C | CC(CCN(C)C1CCC(c2ccc3[nH]c(=O)oc3c2)CC1)c1ccccc1 (stereo unspecified) |
| 89 to 91 °C | CC1(C)CC(OC(=O)c2ccccc2)CC(C)(C)N1N=Nc1ccccc1 |
| 162 to 164 °C | O=C(NCC1(c2ccccc2)CCCCC1)Nc1ccccc1 |
| 236 to 238 °C | NC(=O)Cn1cc2c(n1)CN=C(c1ccccc1)c1cc(Cl)ccc1-2 |
| 202 to 204 °C | CCC1(Cc2nc[nH]c2C)CCc2c(C)c3ccccc3n2C1=O (stereo unspecified) |
| 158 °C | COc1cc(NC(=O)OC(C)(C)C)c(N)cc1C#Cc1ccccc1 |

Reference: a melting point compilation (Tetko et al.; mined from patent text by program, amines drawn as free bases though some values may be those of a salt)
